This note sets out measurements from publication PMC8316815, “Overexpression of ABCG2 Confers Resistance to MLN7243, a Ubiquitin-Activating Enzyme (UAE) Inhibitor” (Frontiers in Cell and Developmental Biology, 2021).

SMILES strings stand for the structures.

For data set [1], the target named is T1, ABCG2 (Homo sapiens, UniProt Q9UNQ0).
T1 sequence (Q9UNQ0 1-655): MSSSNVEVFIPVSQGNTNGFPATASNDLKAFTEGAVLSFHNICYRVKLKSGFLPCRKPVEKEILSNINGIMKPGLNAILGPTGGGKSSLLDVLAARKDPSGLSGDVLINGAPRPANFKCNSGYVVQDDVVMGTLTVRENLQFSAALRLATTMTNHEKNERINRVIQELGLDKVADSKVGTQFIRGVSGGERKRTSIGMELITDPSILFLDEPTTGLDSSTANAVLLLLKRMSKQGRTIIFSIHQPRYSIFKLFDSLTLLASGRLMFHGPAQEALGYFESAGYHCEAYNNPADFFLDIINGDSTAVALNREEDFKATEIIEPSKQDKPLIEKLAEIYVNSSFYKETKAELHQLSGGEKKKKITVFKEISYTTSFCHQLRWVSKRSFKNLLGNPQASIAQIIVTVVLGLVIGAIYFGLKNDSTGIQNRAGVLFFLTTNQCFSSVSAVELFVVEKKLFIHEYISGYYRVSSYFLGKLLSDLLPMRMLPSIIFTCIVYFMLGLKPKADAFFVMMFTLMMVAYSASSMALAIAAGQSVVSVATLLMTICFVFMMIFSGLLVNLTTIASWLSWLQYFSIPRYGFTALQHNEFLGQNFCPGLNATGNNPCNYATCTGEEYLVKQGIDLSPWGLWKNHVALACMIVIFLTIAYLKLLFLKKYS
As to the kind of experiment: ABCG2 ATPase stimulation in membrane vesicles; supported by HPLC accumulation in HEK293/ABCG2-WT cells. In kind it is biochemical. Also on record: ABCG2 membrane vesicles (PREDEASY ATPase Kit).

Data set [2] has as its target T1, ABCG2. As to the kind of experiment: [3H]-mitoxantrone accumulation in NCI-H460 and NCI-H460/TPT10 cells, restored by Ko143. Also on record: ABCG2-overexpressing NCI-H460/TPT10 cells. In kind it is cell-based.

`NS(=O)(=O)OC[C@H]1C[C@@H](Nc2ccnc3cc(-c4cccc(SC(F)(F)F)c4)nn23)[C@H](O)[C@@H]1O` [MLN7243] gave an EC50 on ABCG2 [1] of 1.78 µM. For the molecule `O=C1c2c(O)ccc(O)c2C(=O)c2c(NCCNCCO)ccc(NCCNCCO)c21` [mitoxantrone], at ABCG2 [2], the “[3H]-mitoxantrone accumulation in NCI-H460 and NCI-H460/TPT10 cells, restored by” value is given as “suggesting a large portion of mitoxantrone was pumped out from the cells by ABCG2 transporter”.
